For this experiment, the target named is T1, STK23 (MSSK1) (Homo sapiens, UniProt Q9UPE1).
T1 construct: purchased Thermo Fisher Scientific (Life Technologies) SelectScreen
Briefly: SelectScreen Z'LYTE. The class given is biochemical. In outline: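 SelectScreen broad panel; activity (Z'LYTE, Adapta) plus binding formats. ATP: Km app for CSF1R Z'LYTE; 10 for CAMK1 Adapta. Readout = % per kinase.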

T1 sequence (Q9UPE1 whole entry): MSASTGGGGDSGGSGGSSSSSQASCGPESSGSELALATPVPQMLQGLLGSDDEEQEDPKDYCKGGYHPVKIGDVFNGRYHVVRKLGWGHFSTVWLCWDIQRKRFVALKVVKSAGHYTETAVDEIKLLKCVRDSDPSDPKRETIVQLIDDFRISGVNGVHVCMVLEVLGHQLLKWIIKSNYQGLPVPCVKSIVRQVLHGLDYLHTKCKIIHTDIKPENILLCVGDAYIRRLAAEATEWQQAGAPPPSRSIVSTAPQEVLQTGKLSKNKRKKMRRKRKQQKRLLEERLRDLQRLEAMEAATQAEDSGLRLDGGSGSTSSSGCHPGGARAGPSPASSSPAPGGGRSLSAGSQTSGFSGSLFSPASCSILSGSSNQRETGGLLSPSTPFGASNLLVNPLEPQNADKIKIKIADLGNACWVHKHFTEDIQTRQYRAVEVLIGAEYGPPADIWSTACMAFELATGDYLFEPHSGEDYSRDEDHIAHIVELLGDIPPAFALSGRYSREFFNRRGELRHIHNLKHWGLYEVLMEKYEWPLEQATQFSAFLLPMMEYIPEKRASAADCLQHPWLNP

As for `CN(C(=O)CN1CCOCC1)c1ccc2sc3c(-c4cccc5c(=O)cc(N6CC7CCC(C6)O7)oc45)cccc3c2c1` [NU5455], the inhibition at 1 µM came out at 2%.
